Read-outs that look alike come from different tables or passages of the source.
Columns and labels:
Format in all cases: cell-based
[1] = tested on: MCF7 cells (ATCC #HTB-22); assay: Cellular growth inhibition assay, MCF7 cells purchased from ATCC; conditions: Homo sapiens, MCF7, 144 h
Summary of the method: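 GI50 values come from a four-parameter fit of CellTiter-Glo 2.0 luminescence after six days of compound exposure at 37° C. Seeding density depended on the source: 225 cells/well for ECACC MCF7, 1,500 for ATCC. Medium was RPMI 1640 with 10% FBS and 0.2 U/ml insulin.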

[2] = tested on: T-Rex 293 cells lacking increased expression of estrogen receptor alpha protein; assay: Cellular growth inhibition assay, T-Rex 293 cells, (−) doxycycline; conditions: T-REx-293, 72 h
Summary of the method: (§1)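 Cells of an inducible ERα-expressing T-Rex 293 clone are seeded in charcoal-dextran FBS medium with or without 3 ng/mL doxycycline, then treated after 24 h with compound dilutions (0.5% DMSO) for 72 h. Growth inhibition is measured by CellTiter-Glo luminescence and expressed as GI50.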

[3] = tested on: T-Rex 293 cells having increased expression of estrogen receptor alpha protein; assay: Cellular growth inhibition assay, T-Rex 293 cells, (+) doxycycline; conditions: T-REx-293, 72 h
Summary of the method: as §1

[4] = Table 8-A, MCF7 cells purchased from ATCC, six days, CellTiter-Glo, read-out: GI50
[5] = Table 7-A, T-Rex 293 cells without doxycycline (lacking increased ERα expression), 72 hours, CellTiter-Glo, read-out: (−) Dox GI50
[6] = Table 7-A, T-Rex 293 cells with doxycycline (increased ERα expression), 72 hours, CellTiter-Glo, read-out: (+) Dox GI50

SMILES	GI50 [1, 4]	GI50 [2, 5]	GI50 [3, 6]	GI50 [1]	GI50 ([2]; read-out: (−) Dox TRex ERa (GI50))	GI50 ([3]; read-out: (+) Dox TRex ERa (GI50))
Cc1sc2c(c1C)C(c1ccc(N3CCC(CN4CCN(c5ccc([C@@H]6c7ccc(O)cc7CC[C@@H]6c6ccccc6)cn5)CC4)CC3)cc1)=N[C@@H](Cc1ncco1)c1nnc(C)n1-2 [III-126]	50 to 500 nM	50 to 500 nM	< 50 nM			
CC1=C(c2c(F)cc(F)cc2F)[C@@H](c2ccc(OCCN3CCCC4(CCN(c5ccc(C6=N[C@@H](C)c7nnc(C)n7-c7sc(C)c(C)c76)cc5)CC4)C3)cc2)Oc2ccc(O)cc21 [V-4]	50 to 500 nM	500 to 2500 nM	500 to 2500 nM			
COc1ccc(-c2sc3cc(OC)ccc3c2C(=O)c2ccc(OCCN3CCC4(CC3)CC(Oc3ccc(C5=N[C@@H](Cc6ncco6)c6nnc(C)n6-c6sc(C)c(C)c65)cc3)C4)cc2)cc1 [IV-55]	< 50 nM	500 to 2500 nM	< 50 nM			
CCN(Cc1ccc(C2CN(CC3(O)CCN(c4ccc(C5=N[C@@H](C)c6nnc(C)n6-c6sc(C)c(C)c65)cc4)CC3)C2)cc1)c1cc(OC)ccc1C1CCc2cc(O)ccc2C1 (stereo partly drawn) [I-8, 4-((3-(4-((ethyl(2-(6-hydroxy-1,2,3,4-tetrahydronaphthalen-2-yl)-5-methoxyphenyl)amino)methyl)phenyl)azetidin-1-yl)methyl)-1-(4-((S)-2,3,6,9-tetramethyl-6H-thieno[3,2-f][1,2,4]triazolo[4,3-a][1,4]diazepin-4-yl)phenyl)piperidin-4-ol]				< 50 nM	50 to 500 nM	50 to 500 nM
Cc1sc2c(c1C)C(c1ccc(OCC3CCN(CCOc4ccc([C@H]5c6ccc(O)cc6CC[C@H]5c5ccccc5)cc4)CC3)cc1)=N[C@@H](Cc1ncco1)c1nnc(C)n1-2 [III-112]	50 to 500 nM	50 to 500 nM	50 to 500 nM			
Cc1sc2c(c1C)C(c1ccc(N3CCN(CC4CCN(c5ccc([C@@H]6c7ccc(O)cc7CC[C@@H]6c6ccccc6)cc5)CC4)CC3)cc1)=N[C@@H](Cn1cccn1)c1nnc(C)n1-2 [III-215]	< 50 nM	> 2500 nM	< 50 nM			
Cc1sc2c(c1C)C(c1ccc(N3CCC(O)(CN4CCC(c5ccc(C6=C(c7ccc(Cl)cc7Cl)CCCc7cc(C(=O)O)ccc76)cc5)CC4)CC3)cc1)=N[C@@H](C)c1nnc(C)n1-2 [IV-5]	50 to 500 nM	> 2500 nM	< 50 nM			
CC1=C(c2c(F)cc(F)cc2F)[C@H](c2ccc(OCCN3CC(COCCOc4ccc(C5=N[C@@H](C)c6nnc(C)n6-c6sc(C)c(C)c65)cc4)C3)cc2)Oc2ccc(O)cc21 [I-59]	50 to 500 nM	500 to 2500 nM	50 to 500 nM			
Cc1cc([C@@H]2c3ccc(O)cc3CC[C@@H]2c2ccccc2)c(F)cc1N1CCN(CC2(O)CCN(c3ccc(C4=N[C@@H](C)c5nnc(C)n5-c5sc(C)c(C)c54)cc3)CC2)CC1 [III-287]	50 to 500 nM	500 to 2500 nM	< 50 nM			
Cc1sc2c(c1C)C(c1ccc(N3CCC(O)(CN4CCN(c5ccc(C6=C(c7ccccc7)CCCc7cc(B(O)O)ccc76)cc5)CC4)CC3)cc1)=N[C@@H](C)c1nnc(C)n1-2 [IV-63]	< 50 nM	500 to 2500 nM	< 50 nM			
Cc1sc2c(c1C)C(c1ccc(N3CCC(O)(CN4CCN(c5ccc(C6=C(c7ccc(F)cc7F)CCCc7cc(C(=O)O)ccc76)cc5)CC4)CC3)cc1)=N[C@@H](C)c1nnc(C)n1-2 [IV-26]	< 50 nM	500 to 2500 nM	< 50 nM			
Cc1sc2c(c1C)C(c1ccc(N3CCCN(CCCNCCOc4ccc([C@@H]5c6ccc(O)cc6CC[C@@H]5c5ccccc5)cc4)CC3)cc1)=NC(Cc1ncco1)c1nnc(C)n1-2 (stereo partly drawn) [III-42]	50 to 500 nM	50 to 500 nM	< 50 nM			
Cc1sc2c(c1C)C(c1ccc(N3CCC(O)(CN4CCN(c5ccc([C@@H]6c7ccc(O)cc7CC[C@@H]6c6ccc(F)cc6)cc5)CC4)CC3)cc1)=N[C@@H](Cc1ncco1)c1nnc(C)n1-2 [III-210]	< 50 nM	50 to 500 nM	< 50 nM			
Cc1sc2c(c1C)C(c1ccc(N3CCC(F)(CN4CCN(c5ccc(C6=C(c7ccc(Cl)cc7Cl)CCCc7cc(C(=O)O)ccc76)cc5)CC4)CC3)cc1)=N[C@@H](C)c1nnc(C)n1-2 [IV-27]	50 to 500 nM	500 to 2500 nM	50 to 500 nM			
Cc1sc2c(c1C)C(c1ccc(OCCN3CCN(CCOc4ccc([C@@H]5c6ccc(O)cc6CC[C@@H]5c5ccccc5)cc4)CC3)cc1)=N[C@@H](Cc1ncco1)c1nnc(C)n1-2 [III-109]	50 to 500 nM	50 to 500 nM	< 50 nM			
COc1cc(N2CCN(CC3(O)CCN(c4ccc(C5=N[C@@H](C)c6nnc(C)n6-c6sc(C)c(C)c65)cc4)CC3)CC2)ccc1[C@H]1c2ccc(O)cc2CC[C@H]1c1ccccc1F (single isomer, unassigned) [III-308]	50 to 500 nM	50 to 500 nM	50 to 500 nM			
Cc1sc2c(c1C)C(c1ccc(N3CC4(CCC(O)(CN5CCC(c6ccc([C@@H]7c8ccc(O)cc8CC[C@@H]7c7ccccc7)cc6)CC5)CC4)C3)cc1)=N[C@@H](Cc1ncco1)c1nnc(C)n1-2 [III-211]	< 50 nM	50 to 500 nM	< 50 nM			
Cc1sc2c(c1C)C(c1ccc(N3CCC(O)(CN4CCN(c5ccc([C@H]6c7ccc(O)cc7CC[C@H]6c6cccc(F)c6)c(F)c5)CC4)CC3)cc1)=N[C@@H](C)c1nnc(C)n1-2 [III-290]	50 to 500 nM	50 to 500 nM	< 50 nM			
Cc1sc2c(c1C)C(c1ccc(N3CC(C(=O)N4CCN(CC5CN(c6ccc([C@@H]7c8ccc(O)cc8CC[C@@H]7c7ccccc7)cc6)C5)CC4)C3)cc1)=N[C@@H](Cc1ncco1)c1nnc(C)n1-2 [III-168]	< 50 nM	50 to 500 nM	< 50 nM			
CC1=C(c2c(F)cc(F)cc2F)[C@@H](c2ccc(C3CCN(CC4(O)CCN(c5ccc(C6=N[C@@H](C)c7nnc(C)n7-c7sc(C)c(C)c76)cc5)CC4)CC3)cc2)Oc2ccc(O)cc21 [V-32]	50 to 500 nM	500 to 2500 nM	< 50 nM			

More lines, main results first:

GI50 [1, 4]	SMILES	GI50 [2, 5]	GI50 [3, 6]	GI50 [1]	GI50 ([2]; read-out: (−) Dox TRex ERa (GI50))	GI50 ([3]; read-out: (+) Dox TRex ERa (GI50))
< 50 nM	Cc1sc2c(c1C)C(c1ccc(N3CCC(O)(CN4CCN(c5ccc([C@@H]6c7ccc(O)cc7CC[C@@H]6c6ccc(F)cc6)cc5)CC4)CC3)cc1)=N[C@@H](C)c1nnc(C)n1-2 [III-185]	500 to 2500 nM	< 50 nM			
< 50 nM	Cc1sc2c(c1C)C(c1ccc(N3CC4(CC(CN5CCC(c6ccc([C@@H]7c8ccc(O)cc8CC[C@@H]7c7ccccc7)cc6)CC5)C4)C3)cc1)=N[C@@H](C)c1nnc(C)n1-2 [III-242]	500 to 2500 nM	< 50 nM			
> 2500 nM	Cc1sc2c(c1C)C(c1ccc(C#CC3CC4(CCN(c5ccc([C@@H]6c7ccc(O)cc7CC[C@@H]6c6ccccc6)cc5)CC4)C3)cc1)=N[C@H](Cc1ncco1)c1nnc(C)n1-2 [III-19]	> 2500 nM	> 2500 nM			
50 to 500 nM	Cc1sc2c(c1C)C(c1ccc(N3CC(CN4CC(COc5ccc([C@H]6c7ccc(O)cc7CC[C@H]6c6ccccc6)cc5)C4)C3)cc1)=N[C@@H](C)c1nnc(C)n1-2 [III-102]	50 to 500 nM	50 to 500 nM			
< 50 nM	Cc1sc2c(c1C)C(c1ccc(N3CC(CC4(O)CN(CC5CN(c6ccc([C@@H]7c8ccc(O)cc8CC[C@@H]7c7ccccc7)cc6)C5)C4)C3)cc1)=NC(C)c1nnc(C)n1-2 (stereo partly drawn) [III-240]	50 to 500 nM	< 50 nM			
50 to 500 nM	Cc1sc2c(c1C)C(c1ccc(N3CC(CCN4CC(COc5ccc([C@H]6c7ccc(O)cc7CC[C@H]6c6ccccc6)cc5)C4)C3)cc1)=N[C@@H](C)c1nnc(C)n1-2 [III-85]	500 to 2500 nM	50 to 500 nM			
< 50 nM	Cc1sc2c(c1C)C(c1ccc(N3CCC4(CC3)CN(CC3CCN(c5ccc([C@@H]6c7ccc(O)cc7CC[C@@H]6c6ccccc6)cc5)CC3)C4)cc1)=N[C@@H](C)c1nnc(C)n1-2 [III-88]	50 to 500 nM	< 50 nM			
50 to 500 nM	Cc1sc2c(c1C)C(c1ccc(C3CN(CCN4CC(COc5ccc([C@H]6c7ccc(O)cc7CC[C@H]6c6ccccc6)cc5)C4)C3)cc1)=N[C@@H](C)c1nnc(C)n1-2 [III-96]	50 to 500 nM	50 to 500 nM			
500 to 2500 nM	Cc1sc2c(c1C)C(c1ccc(CC3CC4(CCN(c5ccc([C@H]6c7ccc(O)cc7CC[C@H]6c6ccccc6)cc5)CC4)C3)cc1)=N[C@@H](C)c1nnc(C)n1-2 [III-15]	500 to 2500 nM	500 to 2500 nM			
500 to 2500 nM	Cc1sc2c(c1C)C(c1ccc(CC3CC4(CCCN(c5ccc([C@H]6c7ccc(O)cc7CC[C@H]6c6ccccc6)cc5)C4)C3)cc1)=N[C@@H](C)c1nnc(C)n1-2 (stereo partly drawn) [III-13]	> 2500 nM	500 to 2500 nM			
< 50 nM	Cc1sc2c(c1C)C(c1ccc(N3CCC4(CCN(CCOc5ccc([C@@H]6c7ccc(O)cc7CC[C@@H]6c6ccccc6)cc5)CC4)CC3)cc1)=NC(Cc1ncco1)c1nnc(C)n1-2 (stereo partly drawn) [III-38]	50 to 500 nM	< 50 nM			
< 50 nM	Cc1sc2c(c1C)C(c1ccc(N3CC4(C3)CC(O)(CN3CCN(c5ccc([C@@H]6c7ccc(O)cc7CC[C@@H]6c6ccccc6)cc5)CC3)C4)cc1)=N[C@@H](C)c1nnc(C)n1-2 [III-268]	500 to 2500 nM	< 50 nM			

Source: patent US12558428B2, “Heterobifunctional compounds and their use in treating disease” (Halda Therapeutics OpCo, Inc., priority 2024, dated 2026)
